The source of these data is patent EP4741383A1, “COMPOUND AND USE THEREOF AS ANTI-CANCER DRUG” (Tyligand Bioscience (Shanghai) Limited, priority 2023, dated 2025).

Some results are limits rather than exact numbers.

Holding throughout (format): biochemical
In assay [1] the target is T1, CDC14A (Homo sapiens, UniProt Q9UNH5).
T1 construct: made in house; host or cells: E. coli
T1 sequence (Q9UNH5 1-594): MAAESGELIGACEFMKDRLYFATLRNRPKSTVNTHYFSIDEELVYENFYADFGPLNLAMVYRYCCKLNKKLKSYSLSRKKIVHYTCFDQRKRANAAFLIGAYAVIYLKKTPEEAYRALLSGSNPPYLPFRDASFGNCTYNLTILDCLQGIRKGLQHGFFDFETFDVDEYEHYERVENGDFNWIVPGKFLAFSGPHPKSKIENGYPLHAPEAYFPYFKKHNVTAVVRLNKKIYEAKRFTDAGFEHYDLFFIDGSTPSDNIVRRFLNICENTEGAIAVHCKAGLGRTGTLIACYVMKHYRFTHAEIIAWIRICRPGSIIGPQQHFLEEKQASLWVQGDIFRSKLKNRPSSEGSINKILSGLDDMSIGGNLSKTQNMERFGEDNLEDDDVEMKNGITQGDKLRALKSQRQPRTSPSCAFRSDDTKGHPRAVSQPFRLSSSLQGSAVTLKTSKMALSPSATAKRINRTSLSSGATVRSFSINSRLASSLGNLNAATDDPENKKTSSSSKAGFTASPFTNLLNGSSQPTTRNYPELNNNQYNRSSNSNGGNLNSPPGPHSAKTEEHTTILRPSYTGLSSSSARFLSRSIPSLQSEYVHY
As to the kind of experiment: Tyrosine phosphatase selectivity (pNPP substrate), CDC14A. On the procedure: (§1) This experiment evaluated the selectivity of the disclosed compounds against tyrosine phosphatases, including SHP1, HePTP, Laforin, LMWPTP, LYP, PTP1B, PRL2, SSU72, VHR, FAP1, STEP, CDC14A, CD45, MEG2, and PP5, all expressed and purified from E. coli.
(§2) Phosphatase activity was measured using p-nitrophenyl phosphate (pNPP) (Fisher Scientific) as the substrate in 50 mM 3,3-dimethylglutaric acid buffer (pH 7.0, containing 1 mM EDTA), with ionic strength adjusted to 0.15 M with NaCl. […] After 10-60 minutes, the reaction was quenched by adding 20 µL of 5 N NaOH. Wells without enzyme were used as controls for correction. The amount of the product, p-nitrophenol, was determined by measuring the absorbance at 405 nm using a Spectra MAX340 microplate spectrophotometer (Molecular Devices), with a molar extinction coefficient of 18000 M^-1cm^-1.
(§3) Data were analyzed using GraphPad Prism software. Dose-response curves were obtained by fitting data using the nonlinear S-curve regression Dose-response-inhibition equation, and IC50 values were calculated.

The target in assay [2] is T2, PP5 (Homo sapiens, UniProt P53041).
T2 construct: made in house; host or cells: E. coli
T2 sequence (P53041 1-499): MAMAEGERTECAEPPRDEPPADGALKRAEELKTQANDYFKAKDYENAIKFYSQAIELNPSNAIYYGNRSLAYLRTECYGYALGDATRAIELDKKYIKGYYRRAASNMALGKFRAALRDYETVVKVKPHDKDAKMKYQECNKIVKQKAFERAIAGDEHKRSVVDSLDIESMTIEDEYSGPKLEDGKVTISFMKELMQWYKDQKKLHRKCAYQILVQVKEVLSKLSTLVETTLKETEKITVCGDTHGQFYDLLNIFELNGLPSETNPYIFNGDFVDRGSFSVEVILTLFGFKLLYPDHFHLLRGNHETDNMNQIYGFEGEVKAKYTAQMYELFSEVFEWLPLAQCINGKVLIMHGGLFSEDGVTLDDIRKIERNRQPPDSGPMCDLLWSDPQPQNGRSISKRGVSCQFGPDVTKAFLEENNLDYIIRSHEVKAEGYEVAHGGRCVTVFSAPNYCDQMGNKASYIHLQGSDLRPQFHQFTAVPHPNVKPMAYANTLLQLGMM
Kind of assay: Tyrosine phosphatase selectivity (pNPP substrate), PP5. How it is done:
as §1, §2, §3

In assay [3] the target is T3, PTP1B (Homo sapiens, UniProt P18031).
T3 construct: made in house; host or cells: E. coli
T3 sequence (P18031 1-435): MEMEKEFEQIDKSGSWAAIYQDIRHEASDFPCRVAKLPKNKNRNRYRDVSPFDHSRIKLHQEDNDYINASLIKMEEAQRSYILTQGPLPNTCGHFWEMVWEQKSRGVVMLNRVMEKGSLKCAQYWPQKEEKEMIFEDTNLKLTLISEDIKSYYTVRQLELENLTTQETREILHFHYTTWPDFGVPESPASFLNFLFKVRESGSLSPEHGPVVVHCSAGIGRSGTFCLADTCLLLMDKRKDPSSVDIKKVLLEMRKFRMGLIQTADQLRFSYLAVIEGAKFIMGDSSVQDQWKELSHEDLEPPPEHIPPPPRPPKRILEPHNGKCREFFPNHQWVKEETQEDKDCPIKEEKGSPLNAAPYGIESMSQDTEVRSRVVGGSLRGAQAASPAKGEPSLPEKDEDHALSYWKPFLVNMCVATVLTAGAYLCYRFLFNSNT
As to the kind of experiment: Tyrosine phosphatase selectivity (pNPP substrate), PTP1B. How it is done:
as §1, §2, §3

Assay [4] concerns the target T4, MEG2 (Homo sapiens, UniProt P43378).
T4 construct: made in house; host or cells: E. coli
T4 sequence (P43378 1-593): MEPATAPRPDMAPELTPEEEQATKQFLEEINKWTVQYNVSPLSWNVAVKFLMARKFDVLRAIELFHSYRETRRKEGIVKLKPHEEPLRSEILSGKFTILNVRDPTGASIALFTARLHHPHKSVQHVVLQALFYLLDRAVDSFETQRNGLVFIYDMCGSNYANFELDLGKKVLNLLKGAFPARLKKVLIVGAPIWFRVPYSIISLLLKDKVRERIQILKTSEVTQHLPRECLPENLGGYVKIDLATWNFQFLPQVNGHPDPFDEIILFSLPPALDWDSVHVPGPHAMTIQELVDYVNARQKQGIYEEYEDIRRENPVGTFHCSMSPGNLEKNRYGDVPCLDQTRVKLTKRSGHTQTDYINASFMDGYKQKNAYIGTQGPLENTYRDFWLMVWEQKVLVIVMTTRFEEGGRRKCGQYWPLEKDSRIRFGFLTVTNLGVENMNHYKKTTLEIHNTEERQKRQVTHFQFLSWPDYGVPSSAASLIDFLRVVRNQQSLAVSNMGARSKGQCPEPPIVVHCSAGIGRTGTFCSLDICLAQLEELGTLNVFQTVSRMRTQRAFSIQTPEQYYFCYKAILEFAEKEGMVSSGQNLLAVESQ
Kind of assay: Tyrosine phosphatase selectivity (pNPP substrate), MEG2. How it is done:
as §1, §2, §3

On to `O=C(Nc1ccc(-c2ccsc2)cc1)C(=O)Nc1ccc(-c2oc3cc(F)c(-c4nnn[nH]4)cc3c2C2CCC2)cc1` [Example 130], for which the IC50 in assay [1] (CDC14A, pNPP substrate) was more than 50 µM; in assay [2] (PP5, pNPP substrate), more than 50 µM; in assay [3] (PTP1B, pNPP substrate), 11.6 µM; in assay [4] (MEG2, pNPP substrate), less than 3 µM. Moreover, in assay [1] (selectivity ratio CDC14A over SHP2), the “IC50PTP/IC50SHP2 CDC14A” value was determined as 2000. Also, the “IC50PTP/IC50SHP2 PP5” value in assay [2] (selectivity ratio PP5 over SHP2) is on record as 2000. For the same molecule, the “IC50PTP/IC50SHP2 PTP1B” value in assay [3] (selectivity ratio PTP1B over SHP2) was 464. Further, the “IC50PTP/IC50SHP2 MEG2” value in assay [4] (selectivity ratio MEG2 over SHP2) is 120.
